The values below come from patent US10034885B2, “Corneal thickness modulating agent” (KOWA COMPANY, LTD., priority 2014, dated 2018).

In assay [1] the target is Rho kinase. The settings on record: according to Non-Patent Document 7; read-out: 50% inhibitory concentration (IC50) for Rho kinase; cited from earlier work.
Assay [2] has as its target Rho kinase. The settings on record: disclosed in Patent Document 3; read-out: 50% inhibitory concentration (IC50) for Rho kinase; cited from earlier work.
The next assay has as its system cornea. Description: Change of thickness of cornea in human, long-term eyedrop administration test. The assay is classed as in vivo. Here is the method:
In a long-term administration test of Compound B in a subject having ophthalmologic disease, the influence on the cornea was examined (27-34 examples). In other words, in an group administered an eyedrop consisting of 0.4% Compound B twice a day for 52 weeks, the corneal thickness was measured using pachymeter before starting administration (week 0), 2 weeks after starting administration, 4 weeks after starting administration, and every 4 weeks thereafter. Measurement was performed five times, and the mean value calculated from the five measurements was adopted. In the measuring day, the drop was instilled in the eye at 9:00 and measurement was performed at 11:00. Note that at week 28, week 52, and during the follow-up (7-28 days after the last administration day), measurement was performed twice at 9:00 (at week 28 and week 52, it was done before the instillation) and 11:00. The upper part in FIG. 1 represents the result from the right eye, and the lower part in FIG. 1 represents the result from the left eye. The vertical axis represents changing values (μm) from week 0, and the horizontal axis represents the week for administration. At week 28, week 52, and during the follow-up (f/u), the measurement at 9:00 is represented with (0) and the measurement at 11:00 is represented with (2).

For assay [3], the system named is rabbit corneal endothelial cell. Particulars: reported in Patent Document 1; cited from earlier work.

Like-named read-outs stand apart in the source and are kept apart here.

As to `CC(N)[C@H]1CC[C@H](C(=O)Nc2ccncc2)CC1` (single isomer, unassigned; (+)) [Compound Y-27632, (+)-trans-4-(1-aminoethyl)-1-(4-pyridylaminocarbonyl)cyclohexane], the IC50 at Rho kinase [1] is 110 nM.
`CC1CNCCCN1S(=O)(=O)c1cccc2cncc(F)c12` (centres unmarked) [Compound A, 1-(4-fluoro-5-isoquinolinesulfonyl)-2-methyl-1,4-homopiperazine]: the IC50 on Rho kinase [2] was 200 nM.
As to `C[C@H]1CNCCCN1S(=O)(=O)c1cccc2cncc(F)c12` [Compound B, (S)-(−)-1-(4-fluoro-5-isoquinolinesulfonyl)-2-methyl-1,4-homopiperazine], in the assay with cornea (human subjects with ophthalmologic disease, 0.4% eyedrop twice a day for 52 weeks, pachymeter, vs week 0), the “thickness of the cornea during the period for administration” value is given as “decreased”. In addition, the “thickness of the cornea during the continued administration” value in the assay with cornea (human, 0.4% eyedrop twice a day for 52 weeks) was “held at a nearly constant value”. In the assay on cornea (human, week 28 and week 52, measured at 9:00 before instillation), the “thickness of the cornea before instillation (0)” value was “had a tendency to return to the value before starting administration”. Besides, the “thickness of the cornea 2 hours after instillation (2)” value with cornea (human, week 28 and week 52, measured at 11:00) is on record as “decreased”.
Turning to `C[C@@H](N)c1ccc(C(=O)Nc2ccnc3[nH]ccc23)cc1` [Compound Y-33983, (R)—(+)—N-(1H-pyrrolo[2,3-b]pyridin-4-yl)-4-(1-aminoethyl)benzamide], on Rho kinase [1], the IC50 is 3.6 nM.
For the compound `O=S(=O)(c1cccc2cnccc12)N1CCCNCC1` [fasudil, 1-(5-isoquinolinesulfonyl)-1,4-homopiperazine], the “adhesive property of a rabbit corneal endothelial cell” value in assay [3] is “enhanced”.
